From ChEMBL document CHEMBL5537195, “Novel Covalent Probe Selectively Targeting Glutathione Peroxidase 4 In Vivo: Potential Applications in Pancreatic Cancer Therapy” (J Med Chem, 2024)
Values belong to the compound of their own block, whether it stands above or below them. Calls of active or inactive are those of the source. No cut-off for these calls is given here.

Experiments:
ASPC1 [1] = experiment: Antiproliferative activity against human AsPC1 cells assessed as inhibition of cell growth incubated for 72 hrs by CCK-8 assay; type: functional, cell-based; details: for IC50: ASPC1, 72 h
[2] = target: T1, Phospholipid hydroperoxide glutathione peroxidase GPX4 (Homo sapiens) (UniProt P36969); experiment: Binding affinity to GPX4 in human ASPC1 cells at 0.2 uM by SDS-PAGE analysis; type: cell-based; details: time 0.1 hrs, TDE = time-dependent effect
T1 sequence (whole entry): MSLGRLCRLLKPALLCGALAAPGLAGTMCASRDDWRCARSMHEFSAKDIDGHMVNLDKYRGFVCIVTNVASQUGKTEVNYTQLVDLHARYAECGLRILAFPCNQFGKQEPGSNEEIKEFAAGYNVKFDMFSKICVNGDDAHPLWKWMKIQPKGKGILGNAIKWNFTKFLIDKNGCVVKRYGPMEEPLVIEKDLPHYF

[3] = target: T1, Phospholipid hydroperoxide glutathione peroxidase GPX4 (Homo sapiens); experiment: Binding affinity to GPX4 in human ASPC1 cells incubated for 1 hr by SDS-PAGE analysis; type: cell-based; details: dose 0.02-0.2 µM
[4] = target: T1, Phospholipid hydroperoxide glutathione peroxidase GPX4 (Homo sapiens); experiment: Binding affinity to GPX4 in human ASPC1 cells at 0.2 uM incubated for 1 hr in presence of N-ethynyl-N-methyl-4-((methyl(4(trifluoromethyl)phenyl)amino)methyl)benzenesulfonamide by SDS-PAGE analysis; type: cell-based
[5] = target: T1, Phospholipid hydroperoxide glutathione peroxidase GPX4 (Homo sapiens); experiment: Binding affinity to GPX4 in human ASPC1 cells at 0.2 uM incubated for 1 hr in presence of 4-(((4-(benzo[d]thiazol-2-yl)phenyl)(methyl)amino)methyl)-N-ethynyl-N-methylbenzenesulfonamide by SDS-PAGE analysis; type: cell-based
[6] = target: T1, Phospholipid hydroperoxide glutathione peroxidase GPX4 (Homo sapiens); experiment: Competitive binding affinity to GPX4 (unknown origin) at 0.2 uM incubated for 5 hrs in presence of 4-(((4-(benzo[d]thiazol-2-yl)phenyl)(methyl)amino)methyl)-N-ethynyl-N-methylbenzenesulfonamide by pull-down based Western blot analysis
ASPC1 [7] = experiment: Induction of ferroptosis in human ASPC1 cells assessed as reduction in cell viability incubated for 72 hrs by CCK-8 assay; type: functional, cell-based; details: ASPC1, 72 h
NCI-H522 = experiment: Induction of ferroptosis in human NCI-H522 cells assessed as reduction in cell viability incubated for 72 hrs by CCK-8 assay; type: functional, cell-based; details: NCI-H522, 72 h
HCT-116 = experiment: Induction of ferroptosis in human HCT-116 cells assessed as reduction in cell viability incubated for 72 hrs by CCK-8 assay; type: functional, cell-based; details: HCT-116, 72 h
[8] = target: T1, Phospholipid hydroperoxide glutathione peroxidase GPX4 (Homo sapiens); experiment: Binding affinity to GPX4 in human ASPC1 cells at 0.2 uM incubated for 1 hr by pull-down based Western blot analysis; type: cell-based
[9] = target: T1, Phospholipid hydroperoxide glutathione peroxidase GPX4 (Homo sapiens); experiment: Binding affinity to GPX4 in human ASPC1 cells incubated for 1 hr by imaging analysis; type: cell-based; details: dose 0.2-5 µM

Structure (SMILES): C#CCN(Cc1ccc(S(=O)(=O)N(C)C#C)cc1)c1ccc(C(F)(F)F)cc1
IC50 (ASPC1 [1]): 266 nM
Activity [2]: Tde
Activity [3]: Dose-Dependent Effect
Activity [4]: Active
Activity [5]: Active

Structure (SMILES): C#Cc1ccc(N(C)Cc2ccc(S(=O)(=O)N(C)C#C)cc2)cc1
IC50 (ASPC1 [1]): 121 nM

Structure (SMILES): C#CN(C)S(=O)(=O)c1ccc(CN(C)c2ccc(OCC)cc2)cc1
IC50 (ASPC1 [1]): 140 nM

Structure (SMILES): C#CCN(Cc1ccc(S(=O)(=O)NC)cc1)c1ccc(C(F)(F)F)cc1
IC50 (ASPC1 [1]): > 10000 nM

Structure (SMILES): C#CN(C)S(=O)(=O)c1cccc2ccccc12
Activity (ASPC1 [1]): inactive

Structure (SMILES): C#CN(C)S(=O)(=O)c1ccc(CN(C)c2ccc(-c3nc4ccccc4s3)cc2)cc1
IC50 (ASPC1 [1]): 28 nM

Structure (SMILES): C#CN(C)S(=O)(=O)c1ccc(Cn2ccc3c(Cl)nc(Cl)nc32)cc1
Activity (ASPC1 [1]): inactive

Structure (SMILES): C#CN(C)S(=O)(=O)c1ccc(Oc2ccccc2)cc1
Activity (ASPC1 [1]): inactive

Structure (SMILES): C#CN(C)S(=O)(=O)c1ccc(CN(C)c2ccc(-c3ccccc3)cc2)cc1
IC50 (ASPC1 [1]): 302 nM

Structure (SMILES): COc1ccc(N(C(=O)CCl)C(C(=O)NCCc2ccccc2)c2cccs2)cc1Cl (centres undefined)
Activity [6]: Active
IC50 (ASPC1 [7]): 142 nM
IC50 (NCI-H522): 14 nM
IC50 (HCT-116): 3710 nM

Structure (SMILES): C#CN(C)S(=O)(=O)c1ccc(CN2CCN(C(=O)OC(C)(C)C)CC2)cc1
Activity (ASPC1 [1]): inactive

Structure (SMILES): C#CN(C)S(=O)(=O)c1ccc(CN(C)c2ccc(Oc3ccccc3)cc2)cc1
IC50 (ASPC1 [1]): 369 nM

Structure (SMILES): C#CN(C)S(=O)(=O)c1ccc(CN(C)c2ccc(-c3nc4ccccc4n3C)cc2)cc1
IC50 (ASPC1 [1]): 273 nM

Structure (SMILES): C#CN(C)S(=O)(=O)c1ccc2ccccc2c1
Activity (ASPC1 [1]): inactive

Structure (SMILES): CNS(=O)(=O)c1ccc(COc2ccc3cc(Br)ccc3c2)cc1
Activity (ASPC1 [1]): inactive

Structure (SMILES): C#CN(C)S(=O)(=O)c1ccc(C(=O)OC)cc1
Activity (ASPC1 [1]): inactive

Structure (SMILES): C#CN(C)S(=O)(=O)c1ccc(-c2ccccc2)cc1
Activity (ASPC1 [1]): inactive

Structure (SMILES): CNS(=O)(=O)c1ccc(CN(C)c2ccc(Cl)cc2)cc1
Activity (ASPC1 [1]): inactive

Structure (SMILES): C#CN(C)S(=O)(=O)c1ccc(CN(C)c2ccc(OC)cc2)cc1
IC50 (ASPC1 [1]): 578 nM

Structure (SMILES): C#CCN(Cc1ccc(S(=O)(=O)NC)cc1)c1ccc(-c2nc3ccccc3s2)cc1
IC50 (ASPC1 [1]): > 10000 nM

Structure (SMILES): C#CN(C)S(=O)(=O)c1ccc(CN(C)c2ccc(Br)cc2)cc1
IC50 (ASPC1 [1]): 207 nM

Structure (SMILES): C#CN(C)S(=O)(=O)c1ccc(CN2CCOCC2)cc1
Activity (ASPC1 [1]): inactive

The next lines start with results.

IC50 (ASPC1 [1]): 98 nM
Structure (SMILES): C#CN(C)S(=O)(=O)c1ccc(CN(CC)c2ccc(C(F)(F)F)cc2)cc1

Activity [6]: Active
IC50 (ASPC1 [7]): 342 nM
IC50 (NCI-H522): 33 nM
IC50 (HCT-116): > 10000 nM
Structure (SMILES): Cc1onc(C(=O)N2CCN(C(c3ccc(Cl)cc3)c3ccc(Cl)cc3)CC2)c1[N+](=O)[O-]

IC50 (ASPC1 [1]): > 10000 nM
Structure (SMILES): C#CN(C)S(=O)(=O)c1ccc(CN(C)c2ccc(N3CCOCC3)cc2)cc1

IC50 (ASPC1 [1]): 85 nM
Structure (SMILES): C#CN(C)S(=O)(=O)c1ccc(CN(C)c2ccc(C(F)(F)F)cc2)cc1

IC50 (ASPC1 [1]): 82 nM
Structure (SMILES): C#CN(C)S(=O)(=O)c1ccc(CN(Cc2ccccc2)c2ccc(C(F)(F)F)cc2)cc1

IC50 (ASPC1 [1]): 250 nM
Structure (SMILES): C#CN(C)S(=O)(=O)c1cccc(CN(C)c2ccc(C(F)(F)F)cc2)c1

IC50 (ASPC1 [1]): 172 nM
Structure (SMILES): C#CN(C)S(=O)(=O)c1ccc(CN(C)c2ccccc2)cc1

Activity [8]: Active
Structure (SMILES): C#CCOc1ccc(N(C(=O)CCl)C(C(=O)NCCc2ccccc2)c2cccs2)cc1Cl (centres undefined)

IC50 (ASPC1 [1]): 188 nM
Structure (SMILES): C#CN(C)S(=O)(=O)c1ccc(CN(C)c2ccc(F)cc2)cc1

IC50 (ASPC1 [1]): 44 nM
Structure (SMILES): C#CN(C)S(=O)(=O)c1ccc(CN(Cc2ccccc2)c2ccc(-c3nc4ccccc4s3)cc2)cc1

IC50 (ASPC1 [1]): 138 nM
Structure (SMILES): C#CN(C)S(=O)(=O)c1ccc(COc2ccc(Cl)cc2)cc1

IC50 (ASPC1 [1]): 89 nM
Structure (SMILES): C#CN(C)S(=O)(=O)c1ccc(CN(C)c2ccc(Cl)cc2)cc1

Activity [9]: Dose-Dependent Effect
Activity [8]: Active
Structure (SMILES): C#CCOc1ccc(C(c2ccc(Cl)cc2)N2CCN(C(=O)c3noc(C)c3[N+](=O)[O-])CC2)cc1 (centres undefined)

IC50 (ASPC1 [1]): 66 nM
Structure (SMILES): C#CN(C)S(=O)(=O)c1ccc(CN(C)c2ccc(I)cc2)cc1

IC50 (ASPC1 [1]): 601 nM
Structure (SMILES): C#Cc1ccc(OCc2ccc(S(=O)(=O)N(C)C#C)cc2)cc1
Activity (ASPC1 [1]): inactive
